Reference: PubChem BioAssay AID2060508 (Molecular Pharmacology Branch, DTP, NCI, 2025)

Tested on: 454973-116-R2-J3-PDC spheroids, viability, % test/control
Test: Anticancer human tumor 454973-116-R2-J3-PDC patient-derived pancreatic carcinoma cell line growth inhibition [GQUAD]
Conditions: spheroids with HUVEC and MSC; for IC50: curve of first compound; for viability, T/C: stronger effect = lower value
Summary of the method: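 Viability of tumor cells grown as complex spheroids with endothelial and stromal cells, exposed to drug combinations. Top concentration at or near clinical Cmax (else 10 microM), diluted in half-log increments.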

[1] = second compound 0.0316 µM, first compound 0.0316 µM
[2] = second compound 0.0316 µM, first compound 0.1 µM
[3] = second compound 0.0316 µM, first compound 0.316 µM
[4] = second compound 0.0316 µM, first compound 1 µM
[5] = second compound 0.0316 µM, first compound 3.16 µM
[6] = second compound 0.0316 µM, first compound 10 µM
[7] = second compound 0.1 µM, first compound 0.0316 µM
[8] = second compound 0.1 µM, first compound 0.1 µM
[9] = second compound 0.1 µM, first compound 0.316 µM
[10] = second compound 0.1 µM, first compound 1 µM
[11] = second compound 0.1 µM, first compound 3.16 µM
[12] = second compound 0.1 µM, first compound 10 µM
[13] = second compound 0.316 µM, first compound 0.0316 µM
[14] = second compound 0.316 µM, first compound 0.1 µM
[15] = second compound 0.316 µM, first compound 0.316 µM
[16] = second compound 0.316 µM, first compound 1 µM
[17] = second compound 0.316 µM, first compound 3.16 µM
[18] = second compound 0.316 µM, first compound 10 µM
[19] = second compound 1 µM, first compound 0.0316 µM
[20] = second compound 1 µM, first compound 0.1 µM
[21] = second compound 1 µM, first compound 0.316 µM
[22] = second compound 1 µM, first compound 1 µM
[23] = second compound 1 µM, first compound 3.16 µM
[24] = second compound 1 µM, first compound 10 µM
[25] = second compound 3.16 µM, first compound 0.0316 µM
[26] = second compound 3.16 µM, first compound 0.1 µM
[27] = second compound 3.16 µM, first compound 0.316 µM
[28] = second compound 3.16 µM, first compound 1 µM
[29] = second compound 3.16 µM, first compound 3.16 µM
[30] = second compound 3.16 µM, first compound 10 µM
[31] = second compound 10 µM, first compound 0.0316 µM
[32] = second compound 10 µM, first compound 0.1 µM
[33] = second compound 10 µM, first compound 0.316 µM
[34] = second compound 10 µM, first compound 1 µM
[35] = second compound 10 µM, first compound 3.16 µM
[36] = second compound 10 µM, first compound 10 µM
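Note: spheroids exposed to compounds for seven days.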
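Throughout, for viability, T/C: 100% = DMSO vehicle control viability.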

Q: With `Cc1cccc(N(C)C(=O)C2C(O)CCN2c2nc(C)cc(C(F)(F)F)c2C#N)c1` (centres undefined) + Cc1[nH]c2ccc(F)cc2c1-c1nc2c3cccnc3c3ncccc3c2[nH]1 as the compound, how does the IC50 (second compound 0.0316 µM) read?
A: > 10 µM

Q: What about the IC50 (second compound 0.1 µM) of the same compound?
A: > 10 µM

Q: And the IC50 (second compound 0.316 µM)?
A: > 10 µM

Q: What about the IC50 (second compound 1 µM) of the same compound?
A: > 10 µM

Q: What about the IC50 (second compound 3.16 µM) of the same compound?
A: > 10 µM

Q: And the IC50 (second compound 10 µM)?
A: > 10 µM

Q: And the viability, T/C [1]?
A: 102%

Q: What about the viability, T/C [2] of the same compound?
A: 94.9%

Q: What about the viability, T/C [3] of the same compound?
A: 104%

Q: What about the viability, T/C [4] of the same compound?
A: 102%

Q: And the viability, T/C [5]?
A: 108%

Q: What about the viability, T/C [6] of the same compound?
A: 98%

Q: And the viability, T/C [7]?
A: 102%

Q: And the viability, T/C [8]?
A: 100%

Q: What about the viability, T/C [9] of the same compound?
A: 103%

Q: And the viability, T/C [10]?
A: 97.7%

Q: And the viability, T/C [11]?
A: 115%

Q: And the viability, T/C [12]?
A: 108%

Q: What about the viability, T/C [13] of the same compound?
A: 104%

Q: And the viability, T/C [14]?
A: 104%

Q: And the viability, T/C [15]?
A: 109%

Q: And the viability, T/C [16]?
A: 101%

Q: What about the viability, T/C [17] of the same compound?
A: 109%

Q: What about the viability, T/C [18] of the same compound?
A: 110%

Q: What about the viability, T/C [19] of the same compound?
A: 103%

Q: And the viability, T/C [20]?
A: 105%

Q: What about the viability, T/C [21] of the same compound?
A: 113%

Q: And the viability, T/C [22]?
A: 107%

Q: And the viability, T/C [23]?
A: 112%

Q: What about the viability, T/C [24] of the same compound?
A: 106%

Q: And the viability, T/C [25]?
A: 86.8%

Q: And the viability, T/C [26]?
A: 88.7%

Q: What about the viability, T/C [27] of the same compound?
A: 97.4%

Q: What about the viability, T/C [28] of the same compound?
A: 106%

Q: And the viability, T/C [29]?
A: 103%

Q: What about the viability, T/C [30] of the same compound?
A: 105%

Q: And the viability, T/C [31]?
A: 105%

Q: And the viability, T/C [32]?
A: 95.8%

Q: What about the viability, T/C [33] of the same compound?
A: 101%

Q: What about the viability, T/C [34] of the same compound?
A: 90.2%

Q: And the viability, T/C [35]?
A: 99%

Q: And the viability, T/C [36]?
A: 101%

Q: Which results are given for `CC(C)n1c(=O)n(C)c2cnc3cc(F)c(-c4ccc(OCCCN5CCCCC5)nc4)cc3c21` + Cc1cnc(CNC(=O)c2c(=O)c3ccc(N4CCCN(C)CC4)nc3n3c2sc2ccccc23)cn1?
A: IC50 (second compound 0.0316 µM): > 10 µM; IC50 (second compound 0.1 µM): < 0.0316 µM; IC50 (second compound 0.316 µM): < 0.0316 µM; IC50 (second compound 1 µM): 0.0397 µM; IC50 (second compound 3.16 µM): > 10 µM; IC50 (second compound 10 µM): < 0.0316 µM; viability, T/C [1]: 76.6%; viability, T/C [2]: 53.5%; viability, T/C [3]: 59.6%; viability, T/C [4]: 52.9%; viability, T/C [5]: 56.8%; viability, T/C [6]: 52.3%; viability, T/C [7]: 43%; viability, T/C [8]: 35.6%; viability, T/C [9]: 36.5%; viability, T/C [10]: 33.6%; viability, T/C [11]: 39.5%; viability, T/C [12]: 32.7%; viability, T/C [13]: 45.5%; viability, T/C [14]: 49%; viability, T/C [15]: 38.7%; viability, T/C [16]: 38.8%; viability, T/C [17]: 40.3%; viability, T/C [18]: 33.7%; viability, T/C [19]: 52.4%; viability, T/C [20]: 48.4%; viability, T/C [21]: 46.9%; viability, T/C [22]: 48.7%; viability, T/C [23]: 51.8%; viability, T/C [24]: 48.2%; viability, T/C [25]: 53.7%; viability, T/C [26]: 65.8%; viability, T/C [27]: 56.1%; viability, T/C [28]: 57.4%; viability, T/C [29]: 58.3%; viability, T/C [30]: 44.4%; viability, T/C [31]: 0.28%; viability, T/C [32]: 0.31%; viability, T/C [33]: 14%; viability, T/C [34]: 0.33%; viability, T/C [35]: 0.3%; viability, T/C [36]: 0.25%
